Entries after “also recorded” stand apart in the source; their conditions may differ.
Tests used:
[1] = tested on: male mice; assay: YKL-05-099 once daily for 2 weeks: bone RNA, static and dynamic histomorphometry; format: in vivo, mouse; conditions: 6 mg/kg once daily i.p.
Protocol: Whole cell extracts were generated, followed by immunoblotting. […] RNA was prepared, and gene expression analyzed by RT-qPCR. […] 2 hours later, animals were sacrificed, RNA was prepared from femurs, and gene expression analyzed by RT-qPCR. […] Animals were sacrificed 2 hours after the final dose, and RNA from femurs analyzed for the indicated genes. BGLAP encodes osteocalcin. * indicated p<0.01 versus vehicle, # indicates p<0.05 versus vehicle. (FIGS. 8E to 8K), static and dynamic histomorphometry were performed on the tibia from the same mice as in FIG. 8D. Each data point represents an individual mouse, p values for each difference are shown on the graph. (FIG. 8L) Representative photomicrograph showing increased osteoblasts on cancellous bone surfaces from YKL-05-099-treated mice.
To determine effects on bone mass and cellular composition/activity, static and dynamic histomorphometry were performed. […] Other than the observed reduction in osteoclast numbers, these findings are quite similar to the effects of once daily PTH treatment.
All animals were housed in the Center for Comparative Medicine at the Massachusetts General Hospital, and all experiments were approved by the hospital's Subcommittee on Research Animal Care. HDAC5-null mice (70) and HDAC4 f/f mice (71) were generously provided by Dr. Eric Olson (University of Texas Southwestern Medical Center, Dallas, TX) and were backcrossed to C57B/6 mice for at least 6 generations. DMP1-Cre mice (27) were generously provided by Dr. Jian (Jerry) Feng (Texas A&M University, Baylor College of Dentistry, Dallas, TX). “DKO” HDAC4/5 mice were of the following genotype: HDAC4f/f; HDAC5−/−; DMP1-Cre. SIK2 f/f mice were as described (40), and were bred to DMP1-Cre animals to generate SIK2^OcyKO mice. ES cells carrying the targeted SOST allele Sost^tm1(KOMP)Vleg, in which the SOST coding sequence has been replaced by LacZ and floxed Neo cassette, were obtained from the Knockout Mouse Project (KOMP) Repository. Clone VG10069-BE8 was injected into blastocysts, and the resulting SOST+/− mice were crossed to HDAC5 mutant animals to generate compound heterozygous mice. In all instances, skeletal phenotypes were evaluated in 8 week-old sex-matched littermates. For acute effects of PTH on bone gene expression, animals were treated with PTH (1-34, 300 μg/kg, subcutaneous administration) and then sacrificed 90 minutes later. For acute effects of YKL-05-093 on bone gene expression, animals were treated with the indicated doses of compound (dissolved in PBS+25 mM HCl) or solvent via intraperitoneal injections, and sacrificed 2 hours later. […] For in vivo sclerostin antibody treatment, mice were treated twice weekly with sclerostin antibody (50 mg/kg, subcutaneous administration, generously provided by Dr. Michael Ominsky, Amgen) for 6 weeks. Power calculations were performed based on pilot experiments in which standard deviations and magnitudes of effect sizes were estimated. For experiments in which mice were treated with either vehicle or PTH (or YKL-05-093), mice were assigned to alternating treatment groups in consecutive order.
Right tibia from 8-week-old mice were subjected to bone histomorphometric analysis. The mice were injected 20 mg/kg body weight of calcein and 40 mg/kg body weight of demeclocycline on 7 and 2 days before necropsy, respectively. The tibia was dissected and fixed in 70% ethanol for 3 days. Fixed bones were dehydrated in graded ethanol, then infiltrated and embedded in methylmethacrylate without demineralization. Undecalcified 4-μm-thick longitudinal sections were obtained using microtome (RM2255, Leica Biosystems., IL, USA). Sections were left unstained for dynamic parameters measurement, and consecutive sections were stained with tartrate-resistant acid phosphatase and counterstained with toluidine blue for measurement of cellular parameters. […]

[2] = molecular target: T1, INSR (Homo sapiens, UniProt P06213); assay: ScanEDGE kinase panel (DiscoverX); format: binding; conditions: read-out: % of control activity at 71 nM
T1 construct: T7 phage fusion (most kinases) or DNA tag for qPCR (HEK-293-made kinases); purchased DiscoverX; host or cells: E. coli BL21-derived host (T7 phage) or HEK-293
T1 sequence (P06213 28-1382): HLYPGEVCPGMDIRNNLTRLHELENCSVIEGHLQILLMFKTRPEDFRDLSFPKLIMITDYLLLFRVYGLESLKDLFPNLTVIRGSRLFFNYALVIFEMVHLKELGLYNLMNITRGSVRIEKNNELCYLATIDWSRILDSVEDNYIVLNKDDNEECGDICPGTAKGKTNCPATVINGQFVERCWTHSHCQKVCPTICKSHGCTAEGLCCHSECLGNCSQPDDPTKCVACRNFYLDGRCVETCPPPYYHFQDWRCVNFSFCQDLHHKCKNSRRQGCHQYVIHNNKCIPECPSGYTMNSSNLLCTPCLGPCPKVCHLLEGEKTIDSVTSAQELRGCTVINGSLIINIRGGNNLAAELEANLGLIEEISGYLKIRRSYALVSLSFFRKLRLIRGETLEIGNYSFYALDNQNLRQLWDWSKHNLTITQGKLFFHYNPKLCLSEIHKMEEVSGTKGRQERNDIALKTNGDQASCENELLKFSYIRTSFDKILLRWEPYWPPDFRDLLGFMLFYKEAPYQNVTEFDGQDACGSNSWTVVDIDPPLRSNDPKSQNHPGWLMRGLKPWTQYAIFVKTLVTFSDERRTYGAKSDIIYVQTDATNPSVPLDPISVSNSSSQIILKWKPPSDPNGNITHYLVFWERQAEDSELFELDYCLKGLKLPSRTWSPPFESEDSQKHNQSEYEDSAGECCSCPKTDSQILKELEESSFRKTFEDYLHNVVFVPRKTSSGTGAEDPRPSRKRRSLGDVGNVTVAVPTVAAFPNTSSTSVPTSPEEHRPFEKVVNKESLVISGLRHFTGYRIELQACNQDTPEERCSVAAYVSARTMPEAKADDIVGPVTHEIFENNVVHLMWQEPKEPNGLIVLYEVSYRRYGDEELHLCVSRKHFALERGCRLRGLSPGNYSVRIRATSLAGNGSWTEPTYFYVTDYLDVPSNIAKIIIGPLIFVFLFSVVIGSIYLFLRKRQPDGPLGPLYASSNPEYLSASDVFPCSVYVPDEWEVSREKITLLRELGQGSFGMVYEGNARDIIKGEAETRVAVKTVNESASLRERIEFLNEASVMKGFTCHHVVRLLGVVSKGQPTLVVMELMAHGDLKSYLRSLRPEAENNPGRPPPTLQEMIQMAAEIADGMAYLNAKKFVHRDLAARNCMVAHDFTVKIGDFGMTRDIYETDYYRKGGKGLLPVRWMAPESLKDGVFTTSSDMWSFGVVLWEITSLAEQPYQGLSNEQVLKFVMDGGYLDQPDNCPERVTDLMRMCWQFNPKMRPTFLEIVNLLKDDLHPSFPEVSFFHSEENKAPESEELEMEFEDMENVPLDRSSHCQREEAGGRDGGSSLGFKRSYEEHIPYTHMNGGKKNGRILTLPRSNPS
In short: (§1)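 qPCR of eluted kinase is the read-out. Kinase-tagged T7 phage came from E. coli BL21-derived hosts lysed at 32° C, or the kinase was made in HEK-293 cells and DNA-tagged. Compound was added from 40× DMSO stocks against ligand-coated, biotin-blocked beads.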

[3] = molecular target: T2, BRSK1 (Homo sapiens, UniProt Q8TDC3); assay: ScanEDGE kinase panel (DiscoverX); format: binding; conditions: read-out: % of control activity at 71 nM
T2 construct: T7 phage fusion (most kinases) or DNA tag for qPCR (HEK-293-made kinases); purchased DiscoverX (Fremont, CA); host or cells: E. coli BL21-derived host (T7 phage) or HEK-293
T2 sequence (Q8TDC3 whole entry, the tested form may be a part): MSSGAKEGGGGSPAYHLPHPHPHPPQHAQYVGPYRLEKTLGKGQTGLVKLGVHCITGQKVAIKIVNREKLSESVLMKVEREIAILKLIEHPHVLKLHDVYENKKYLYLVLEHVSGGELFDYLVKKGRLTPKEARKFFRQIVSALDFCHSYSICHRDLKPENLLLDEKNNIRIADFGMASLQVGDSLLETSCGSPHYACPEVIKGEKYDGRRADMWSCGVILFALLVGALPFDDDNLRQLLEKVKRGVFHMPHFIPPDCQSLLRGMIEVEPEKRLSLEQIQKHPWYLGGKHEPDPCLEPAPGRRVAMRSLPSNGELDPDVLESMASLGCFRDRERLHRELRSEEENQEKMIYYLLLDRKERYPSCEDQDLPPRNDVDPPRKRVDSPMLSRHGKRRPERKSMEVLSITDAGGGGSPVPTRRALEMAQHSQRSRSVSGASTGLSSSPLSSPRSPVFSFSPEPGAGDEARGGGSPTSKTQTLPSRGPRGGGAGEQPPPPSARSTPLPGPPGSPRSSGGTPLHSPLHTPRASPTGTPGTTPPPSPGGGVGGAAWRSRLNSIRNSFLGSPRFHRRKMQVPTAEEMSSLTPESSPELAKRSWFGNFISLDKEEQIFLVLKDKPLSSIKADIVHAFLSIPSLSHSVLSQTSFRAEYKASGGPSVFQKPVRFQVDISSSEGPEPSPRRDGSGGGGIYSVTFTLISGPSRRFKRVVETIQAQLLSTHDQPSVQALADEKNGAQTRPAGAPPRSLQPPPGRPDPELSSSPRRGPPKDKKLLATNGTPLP
In short: as §1

[4] = tested on: Ocy454 cells; assay: cAMP radioimmunoassay; format: cell-based, mouse; conditions: 20 minutes; FIG. 14B
Protocol: Cells, in 96 well plates, were treated with indicated ligands for 20 minutes at room temperature in the presence of the phosphodiesterase inhibitor 3-isobutyl-1-methylxanthine (IBMX, Sigma I5879, 2 mM). The medium was then removed and cells were lysed in 50 mM HCl and transferred to −80C. Thawed lysates were diluted 1:5 with dH2O, and an 10 μl aliquot was assessed for cAMP content by radioimmunoassay using ^125I-cAMP analog as a tracer and unlabeled cAMP to generate a standard curve.

| Compound | RANKL levels in bone RNA [1] | SOST in bone RNA [1] | bone formation rate [1] | cancellous bone mass [1] | matrix apposition rate [1] | mineralizing surface [1] | osteoblast marker genes (osteocalcin and COL1A1) [1] | osteoblast numbers [1] | osteoclast numbers [1] | osteoid surface [1] | remaining binding at 0.071 µM [2] | remaining binding at 0.071 µM [3] | cAMP levels [4] |
| --- | --- | --- | --- | --- | --- | --- | --- | --- | --- | --- | --- | --- | --- |
| COc1ccc(N2C(=O)N(c3c(C)cccc3Cl)Cc3cnc(Nc4ccc(C5CCN(C)CC5)cc4OC)nc32)nc1 [YKL-05-099] | increased | trend towards reduced SOST | increased bone formation rate | increased cancellous bone mass | trend towards increased matrix apposition rate | increased mineralizing surface | significantly increased | increased osteoblast numbers | reduced osteoclast numbers | increased |  |  |  |
| COc1ccc(N2C(=O)N(c3c(C)cccc3C)Cc3cnc(Nc4ccc(C5CCN(C)CC5)c(OC)c4)nc32)c(OC)c1 [YKL-05-093] |  |  |  |  |  |  |  |  |  |  | 56% | 74% | does not induce cAMP generation; also recorded: without increasing cAMP levels |
